Assays:
[1] = system: bleomycin pulmonary fibrosis model; assay: Fibrillization suppressing effect in bleomycin pulmonary fibrosis model mouse (histopathologic staining of lung); type: in vivo, C57BL6/J mice; parameters: key to 8OHDG (extent of peroxides accumulation) / HE (fibrillization) / EM (fibrillization): −: not observed; +: mild; ++: moderate; +++: severe; conditions: for 8OHDG staining of lung tissue (amount of peroxides, FIG. 7) / fibrillization (HE and EM stained images, FIGS. 1 to 5): bleomycin model; for 8OHDG staining of lung tissue (amount of peroxides, FIG. 7): extent similar to that of the normal lung group; for fibrillization (HE and EM stained images, FIGS. 1 to 5) / response on progression of pulmonary fibrosis: intratracheal administration; for fibrillization (HE and EM stained images, FIGS. 1 to 5): versus saline control group in which fibrillization was induced; for response on progression of pulmonary fibrosis: bleomycin pulmonary fibrosis model; for 8OHDG (extent of peroxides accumulation) / EM (fibrillization) / HE (fibrillization): lung tissue, one week after intratracheal administration together with bleomycin, STC1 500 ng, NAC 3 mg; for 8OHDG (extent of peroxides accumulation): 8OHDG staining; for EM (fibrillization): Elastica-Masson staining; for HE (fibrillization): HE staining
Source text: The action of STC1 was investigated using a pulmonary fibrosis model utilizing the mitotic inhibitory action of an anticancer agent, bleomycin (Bleo), as the disease model mouse.
Human recombinant (r) STC1 was produced by BioVender, Inc. Specifically, human-derived STC1 gene added with a TAG structure was introduced into the 293 cells, and rSTC1 was separated using the TAG sequence.
Specifically, C57BL6/J mice (female, 10 weeks old), four animals in each group, were anesthetized by intraperitoneally administering an anesthetic agent (obtained by diluting 300 μg of ketamine hydrochloride and […] of xylazine in 100 μL of physiological saline). Thereafter, the cervix was cut open to expose a trachea, and the jacket of a 23G SURFLO needle was inserted into the trachea. Then, the following drugs were respectively administered intratracheally through the SURFLO jackets to the mice of each group.
(1) Saline control group: 50 μL of bleomycin-containing physiological saline (bleomycin concentration: 400 ng/mL)
(2) STC1-administered group: 500 ng of STC1+50 μL of bleomycin-containing physiological saline
(3) NAC-administered group (positive control): 3 mg of NAC+50 μL of bleomycin-containing physiological saline
(4) Normal lung group: 50 μL of physiological saline
After one week, the mice were euthanized by anesthetizing the mice as described above and then cutting the carotid artery, and subsequently, the lungs were removed. The extirpated lung tissues were subjected to histopathologic staining (HE (hematoxylin eosin) staining, EM (Elastica-Masson staining), and 8OHDG staining) by standard methods.

[2] = literature report; cited from earlier work

Molecule	8OHDG staining of lung tissue (amount of peroxides, FIG. 7) [1]	fibrillization (HE and EM stained images, FIGS. 1 to 5) [1]	response on progression of pulmonary fibrosis [1]	8OHDG (extent of peroxides accumulation) [1]	EM (fibrillization) [1]	HE (fibrillization) [1]	suppression of the immune system [2]
CC(=O)N[C@@H](CS)C(=O)O [NAC, N-acetylcysteine, reference compound]	poorly stained	fibrillization was suppressed	amelioration	+	+~++	+~++	–
Stanniocalcin 1 [STC1]	poorly stained	fibrillization was suppressed	complete response	+	+	+	does not cause suppression of the immune system

Reference: patent US9060988B2, “Method for treating pulmonary fibrosis using a pharmaceutical composition containing stanniocalcin 1 (STC1)” (Tohoku University, priority 2011, dated 2015)
